Measurements from patent US20190365776A1, “THERAPEUTIC AGENT FOR OCULAR FUNDUS DISEASE” (KYUSHU UNIVERSITY, NATIONAL UNIVERSITY CORPORATION, priority 2013, published 2019).

How the values were obtained:
[1] = system: mice OIR (Oxygen-Induced Retinopathy) model; assay: Mice OIR model, fluorescein fundus angiography; format: in vivo, C57BL/6JJcl mice; conditions: 0.8% solution, ocular instillation three times a day, day 17 after birth
Text: C57BL/6JJcl mice born on the same day were reared in a 75%-oxygen environment from day 7 after birth, and were then transferred to a normal indoor environment on day 12 after birth to start administration by ocular instillation. Test groups were a saline instillation group (control), a 0.4% compound 1 solution instillation group, a 0.8% compound 1 solution instillation group, and a 0.4% fasudil solution instillation group, and saline, the compound 1 solution, or the fasudil solution was administered by ocular instillation three times a day. On day 17 after birth, ischemic retinal areas (non-perfused areas) and neovascular areas were quantified for evaluation by flat-mounting or fluorescein fundus angiography. More specifically, 1 g/kg of pentobarbital (Nembutal) was administered intraperitoneally for euthanasia under deep anesthesia, and then both eyeballs were excised and fixed with 4% paraformaldehyde (PFA) at 37° C. for 1 hour, and the corneal limbus was circumferentially incised to remove the cornea and iris from the eyeball. […] Then, the image of the flat-mounted retina was taken with a fluorescence microscope (BZ-9000, KEYENCE Corp, Osaka, Japan), and the proportion of the non-perfused area to the entire retina and the proportion of the neovascular area to the entire retina were calculated by the following formulas in NIH image J software. […]

[2] = system: b-END3 (bEND.3) mouse brain microvascular endothelial cells; assay: Tight junction test: F-Actin immunostaining in b-END3 cells; format: cell-based; conditions: pretreatment 3 μM or 30 μM, 3 hours; VEGF 25 ng/mL or IL-6 10 ng/mL, 24 hours
Procedure: According to a conventional method, b-END3 (bEND.3: ATCC CRL-2299™) cells, which are mouse brain microvascular endothelial cells, were subcultured in 3.5 cm dishes (9×10^5 cells/dish), and a test was started from day 6 after subculture. […]
The cells after the test were subjected to immunostaining according to the following procedure to evaluate the expression of Claudin-5 or F-Actin. […] Then, a cover glass-sized cell sample was prepared by trimming with a cotton swab, enclosed with a Dako pen, blocked with 10% normal goat serum (10% normal goat serum ready-to-use (Invitrogen)) (30 min, ordinary temperature), and allowed to stand at 4° C. overnight. […]

## C[C@H]1CNCCCN1S(=O)(=O)c1cccc2cncc(F)c12 [compound 1, (S)-(−)-1-(4-fluoro-5-isoquinolinesulfonyl)-2-methyl-1,4-homopiperazine]
[1]
  relative value of the neovascular area (saline instillation group = 100%): 41.6%
[2]
  F-Actin polymerization caused by VEGF stimulation or IL-6 stimulation: suppression of F-Actin polymerization
